In the kinase profiling compilation of Christmann-Franck et al. (2016):

Assays:
Test in all cases: KINOMEscan competition binding
Details in all cases: compound 10.0 µM
[1] = biological target: MAP3K1 (human) (UniProt Q13233)
[2] = biological target: PLK2 (human) (UniProt Q9NYY3)
[3] = system: PIK3CA (human), P42336 [I800L]
[4] = biological target: PIK3CG (human) (UniProt P48736)
[5] = biological target: GRK4 (human) (UniProt P32298)
[6] = system: PIK3CA (human), P42336 [Q546K]
[7] = biological target: HIPK2 (human) (UniProt Q9H2X6)
[8] = biological target: GRK1 (human) (UniProt Q15835)
[9] = biological target: IRAK4 (human) (UniProt Q9NWZ3)
[10] = system: EGFR (human), P00533 [746-750 del]
[11] = biological target: CDK13 (human) (UniProt Q14004)
[12] = biological target: MAP3K13 (human) (UniProt O43283)
[13] = biological target: MAP3K15 (human) (UniProt Q6ZN16)
[14] = biological target: CRK2 (P.falciparum) (UniProt P61075)
[15] = biological target: CDK2 (human) (UniProt P24941)
[16] = system: KIT (human), P10721 [V559D/T670I]
[17] = biological target: PIK3C2G (human) (UniProt O75747)
[18] = biological target: EGFR (human) (UniProt P00533)
[19] = biological target: DYRK1A (human) (UniProt Q13627)
[20] = biological target: MET (human) (UniProt P08581)
[21] = system: CPK1 (P.falciparum)
[22] = biological target: TAOK2 (human) (UniProt Q9UL54)
[23] = system: EGFR (human), P00533 [G719S]
[24] = biological target: SIK3 (human) (UniProt Q9Y2K2)
[25] = biological target: KIT (human) (UniProt P10721)
[26] = biological target: SGK3 (human) (UniProt Q96BR1)
[27] = biological target: NIM1 (human) (UniProt Q8IY84)
[28] = system: EGFR (human), P00533 [L861Q]
[29] = system: PIK3CA (human), P42336 [C420R]
[30] = biological target: CDK4 CCND3 (human) (UniProt P11802+P30281)
[31] = biological target: VRK2 (human) (UniProt Q86Y07)
[32] = system: EGFR (human), P00533 [P753S; 747-752 del]
[33] = biological target: BRAF (human) (UniProt P15056)
[34] = biological target: MAP3K2 (human) (UniProt Q9Y2U5)
[35] = system: ABL1 (human), P00519 [E255K]
[36] = biological target: MYLK3 (human) (UniProt Q32MK0)
[37] = biological target: STK39 (human) (UniProt Q9UEW8)
[38] = system: PIK3CA (human), P42336 [H1047Y]
[39] = biological target: YSK4 (human) (UniProt Q56UN5)

Sequence of VRK2 (human) (Q86Y07 whole entry, looked up): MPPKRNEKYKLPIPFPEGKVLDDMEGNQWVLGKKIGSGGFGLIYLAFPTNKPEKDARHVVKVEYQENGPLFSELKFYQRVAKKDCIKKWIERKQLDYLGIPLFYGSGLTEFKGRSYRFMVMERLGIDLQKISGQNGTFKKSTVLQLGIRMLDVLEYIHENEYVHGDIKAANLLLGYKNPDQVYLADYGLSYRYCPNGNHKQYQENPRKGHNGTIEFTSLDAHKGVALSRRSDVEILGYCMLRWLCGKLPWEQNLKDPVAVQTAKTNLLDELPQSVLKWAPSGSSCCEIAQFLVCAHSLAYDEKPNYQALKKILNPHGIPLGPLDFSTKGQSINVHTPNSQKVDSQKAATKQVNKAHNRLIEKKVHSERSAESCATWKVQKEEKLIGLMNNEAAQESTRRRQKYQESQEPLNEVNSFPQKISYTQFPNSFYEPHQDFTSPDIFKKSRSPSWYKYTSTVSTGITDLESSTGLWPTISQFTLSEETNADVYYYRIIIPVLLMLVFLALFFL
Sequence of SGK3 (human) (Q96BR1 whole entry, looked up): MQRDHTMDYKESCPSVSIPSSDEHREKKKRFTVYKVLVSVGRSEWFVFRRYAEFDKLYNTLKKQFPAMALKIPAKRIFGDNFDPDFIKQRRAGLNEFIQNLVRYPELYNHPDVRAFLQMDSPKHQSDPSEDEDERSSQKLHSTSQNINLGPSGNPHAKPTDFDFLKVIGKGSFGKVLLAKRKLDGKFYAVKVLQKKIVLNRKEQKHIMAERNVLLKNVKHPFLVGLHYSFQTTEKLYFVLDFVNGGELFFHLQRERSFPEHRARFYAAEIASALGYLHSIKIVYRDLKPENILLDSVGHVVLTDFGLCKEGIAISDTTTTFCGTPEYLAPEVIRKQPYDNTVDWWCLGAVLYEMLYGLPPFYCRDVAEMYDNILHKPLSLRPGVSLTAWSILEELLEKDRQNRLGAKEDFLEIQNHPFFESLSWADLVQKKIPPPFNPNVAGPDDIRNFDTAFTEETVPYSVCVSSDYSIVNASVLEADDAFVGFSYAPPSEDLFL
Sequence of MAP3K1 (human) (Q13233 whole entry, looked up): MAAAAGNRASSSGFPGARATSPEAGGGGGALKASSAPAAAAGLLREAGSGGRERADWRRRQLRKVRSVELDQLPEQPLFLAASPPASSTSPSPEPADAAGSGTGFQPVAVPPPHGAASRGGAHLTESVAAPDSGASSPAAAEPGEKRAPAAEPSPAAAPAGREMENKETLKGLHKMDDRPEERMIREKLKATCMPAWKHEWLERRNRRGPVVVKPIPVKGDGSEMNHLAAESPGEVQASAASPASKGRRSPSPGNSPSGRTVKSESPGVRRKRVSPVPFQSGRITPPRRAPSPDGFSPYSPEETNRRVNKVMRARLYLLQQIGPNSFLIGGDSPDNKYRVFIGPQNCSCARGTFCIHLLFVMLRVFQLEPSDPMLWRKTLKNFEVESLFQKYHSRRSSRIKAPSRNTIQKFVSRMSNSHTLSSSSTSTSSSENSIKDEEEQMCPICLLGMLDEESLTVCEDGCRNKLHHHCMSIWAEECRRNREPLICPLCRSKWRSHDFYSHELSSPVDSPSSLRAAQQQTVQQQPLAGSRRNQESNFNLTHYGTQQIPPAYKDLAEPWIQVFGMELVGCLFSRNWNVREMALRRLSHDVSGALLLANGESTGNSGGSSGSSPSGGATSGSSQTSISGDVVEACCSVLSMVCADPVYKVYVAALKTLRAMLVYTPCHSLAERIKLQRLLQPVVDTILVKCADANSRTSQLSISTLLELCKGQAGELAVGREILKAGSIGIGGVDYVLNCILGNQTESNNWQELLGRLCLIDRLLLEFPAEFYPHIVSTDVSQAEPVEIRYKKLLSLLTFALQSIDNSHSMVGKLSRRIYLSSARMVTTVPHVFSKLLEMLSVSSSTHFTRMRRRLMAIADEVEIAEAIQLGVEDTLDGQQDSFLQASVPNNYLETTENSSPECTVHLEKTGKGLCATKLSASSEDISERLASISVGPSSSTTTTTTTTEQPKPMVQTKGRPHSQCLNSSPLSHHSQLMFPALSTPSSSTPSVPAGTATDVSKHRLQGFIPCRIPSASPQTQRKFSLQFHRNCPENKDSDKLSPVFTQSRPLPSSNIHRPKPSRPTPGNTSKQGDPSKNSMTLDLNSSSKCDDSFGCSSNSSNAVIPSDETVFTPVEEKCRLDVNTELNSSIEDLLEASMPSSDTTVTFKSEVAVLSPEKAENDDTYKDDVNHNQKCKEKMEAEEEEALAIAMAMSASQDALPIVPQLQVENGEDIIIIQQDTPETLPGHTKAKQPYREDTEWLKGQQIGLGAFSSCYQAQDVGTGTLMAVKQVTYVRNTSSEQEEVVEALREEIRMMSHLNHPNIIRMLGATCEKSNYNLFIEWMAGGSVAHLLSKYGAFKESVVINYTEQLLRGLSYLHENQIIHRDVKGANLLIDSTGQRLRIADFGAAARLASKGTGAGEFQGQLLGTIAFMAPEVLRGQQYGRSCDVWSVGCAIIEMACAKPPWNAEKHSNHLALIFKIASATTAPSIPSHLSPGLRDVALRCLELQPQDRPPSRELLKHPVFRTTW
Sequence of PIK3CA (human), P42336 [H1047Y] (P42336 whole entry H1047Y, looked up): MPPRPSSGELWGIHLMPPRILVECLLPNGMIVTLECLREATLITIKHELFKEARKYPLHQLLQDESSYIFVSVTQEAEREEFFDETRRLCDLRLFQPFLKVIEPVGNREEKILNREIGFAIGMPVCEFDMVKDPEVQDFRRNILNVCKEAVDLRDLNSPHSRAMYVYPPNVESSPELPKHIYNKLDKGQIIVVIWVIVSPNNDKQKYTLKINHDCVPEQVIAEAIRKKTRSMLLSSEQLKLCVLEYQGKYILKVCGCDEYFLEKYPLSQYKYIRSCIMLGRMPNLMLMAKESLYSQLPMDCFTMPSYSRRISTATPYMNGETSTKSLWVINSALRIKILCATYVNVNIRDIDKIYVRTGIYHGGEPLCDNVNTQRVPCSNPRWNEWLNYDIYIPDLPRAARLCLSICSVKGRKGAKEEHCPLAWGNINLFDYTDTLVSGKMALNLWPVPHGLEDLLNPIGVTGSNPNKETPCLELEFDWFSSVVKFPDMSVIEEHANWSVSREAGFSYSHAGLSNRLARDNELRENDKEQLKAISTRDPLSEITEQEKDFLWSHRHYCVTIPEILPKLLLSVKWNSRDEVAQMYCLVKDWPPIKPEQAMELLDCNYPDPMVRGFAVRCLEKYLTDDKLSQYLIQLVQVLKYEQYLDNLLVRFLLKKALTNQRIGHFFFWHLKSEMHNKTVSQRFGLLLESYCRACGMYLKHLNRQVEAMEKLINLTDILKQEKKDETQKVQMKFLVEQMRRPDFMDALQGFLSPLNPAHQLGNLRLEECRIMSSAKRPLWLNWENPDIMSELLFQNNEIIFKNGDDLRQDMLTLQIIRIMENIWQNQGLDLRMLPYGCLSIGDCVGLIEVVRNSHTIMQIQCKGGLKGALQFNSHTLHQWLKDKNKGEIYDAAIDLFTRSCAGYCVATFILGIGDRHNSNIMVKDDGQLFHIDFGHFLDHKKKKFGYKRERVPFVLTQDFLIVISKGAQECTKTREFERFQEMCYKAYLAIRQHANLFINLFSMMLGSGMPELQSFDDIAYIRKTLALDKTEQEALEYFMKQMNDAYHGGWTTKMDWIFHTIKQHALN
Sequence of KIT (human), P10721 [V559D/T670I] (P10721 whole entry V559D/T670I, looked up): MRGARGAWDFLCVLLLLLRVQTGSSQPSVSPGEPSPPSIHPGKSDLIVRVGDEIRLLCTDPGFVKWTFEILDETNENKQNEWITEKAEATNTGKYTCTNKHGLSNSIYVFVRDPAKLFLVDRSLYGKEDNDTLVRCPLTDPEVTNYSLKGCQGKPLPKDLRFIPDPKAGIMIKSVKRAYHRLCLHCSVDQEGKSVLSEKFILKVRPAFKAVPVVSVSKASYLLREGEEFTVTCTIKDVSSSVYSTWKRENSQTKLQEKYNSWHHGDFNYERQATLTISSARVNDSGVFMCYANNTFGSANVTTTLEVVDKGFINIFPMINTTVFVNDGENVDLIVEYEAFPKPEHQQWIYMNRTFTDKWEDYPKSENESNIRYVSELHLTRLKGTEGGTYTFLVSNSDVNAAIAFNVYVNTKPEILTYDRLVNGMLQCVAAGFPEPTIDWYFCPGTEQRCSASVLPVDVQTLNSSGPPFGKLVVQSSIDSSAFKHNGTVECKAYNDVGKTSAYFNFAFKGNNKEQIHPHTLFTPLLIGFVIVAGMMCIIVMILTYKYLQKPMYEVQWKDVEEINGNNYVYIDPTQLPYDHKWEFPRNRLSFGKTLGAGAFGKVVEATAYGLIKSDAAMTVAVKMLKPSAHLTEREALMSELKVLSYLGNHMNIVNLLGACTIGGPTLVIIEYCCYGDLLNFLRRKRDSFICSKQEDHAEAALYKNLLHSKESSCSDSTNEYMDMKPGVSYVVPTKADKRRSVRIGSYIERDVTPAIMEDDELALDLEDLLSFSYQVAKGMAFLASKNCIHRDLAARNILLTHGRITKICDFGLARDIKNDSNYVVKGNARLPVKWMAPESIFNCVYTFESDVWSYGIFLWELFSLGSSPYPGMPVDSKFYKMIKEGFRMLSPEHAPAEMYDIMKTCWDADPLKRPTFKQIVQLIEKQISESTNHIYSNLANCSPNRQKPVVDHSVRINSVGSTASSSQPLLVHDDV
Sequence of NIM1 (human) (Q8IY84 whole entry, looked up): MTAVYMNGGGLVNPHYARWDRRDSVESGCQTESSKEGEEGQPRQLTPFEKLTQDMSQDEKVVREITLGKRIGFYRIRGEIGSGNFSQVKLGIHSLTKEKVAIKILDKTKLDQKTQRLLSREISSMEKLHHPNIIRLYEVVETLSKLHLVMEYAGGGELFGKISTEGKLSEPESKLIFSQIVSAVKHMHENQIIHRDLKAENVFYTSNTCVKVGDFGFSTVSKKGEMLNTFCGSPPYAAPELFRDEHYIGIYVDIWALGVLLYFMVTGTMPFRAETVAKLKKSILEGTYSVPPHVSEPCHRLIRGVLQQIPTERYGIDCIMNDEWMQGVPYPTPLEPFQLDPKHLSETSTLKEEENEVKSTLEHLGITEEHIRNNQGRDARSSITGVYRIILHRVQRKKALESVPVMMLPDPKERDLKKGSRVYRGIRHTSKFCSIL
Sequence of PIK3CA (human), P42336 [C420R] (P42336 whole entry C420R, looked up): as the sequence (P42336 whole entry H1047Y, looked up) above, with C420R, Y1047H counted along it
Sequence of PIK3CA (human), P42336 [I800L] (P42336 whole entry I800L, looked up): as the sequence (P42336 whole entry H1047Y, looked up) above, with I800L, Y1047H counted along it

Compound: C[C@@H](Oc1cc(-n2cnc3ccc(CN4CCN(C)CC4)cc32)sc1C(N)=O)c1ccccc1C(F)(F)F
- kinase still bound, per cent of control [1]: 3.7%
- kinase still bound, per cent of control [2]: 2.6%
- kinase still bound, per cent of control [3]: 24%
- kinase still bound, per cent of control [4]: 6.4%
- kinase still bound, per cent of control [5]: 16%
- kinase still bound, per cent of control [6]: 29%
- kinase still bound, per cent of control [7]: 36%
- kinase still bound, per cent of control [8]: 50%
- kinase still bound, per cent of control [9]: 43%
- kinase still bound, per cent of control [10]: 100%
- kinase still bound, per cent of control [11]: 26%
- kinase still bound, per cent of control [12]: 87%
- kinase still bound, per cent of control [13]: 24%
- kinase still bound, per cent of control [14]: 100%
- kinase still bound, per cent of control [15]: 85%
- kinase still bound, per cent of control [16]: 37%
- kinase still bound, per cent of control [17]: 40%
- kinase still bound, per cent of control [18]: 87%
- kinase still bound, per cent of control [19]: 100%
- kinase still bound, per cent of control [20]: 76%
- kinase still bound, per cent of control [21]: 62%
- kinase still bound, per cent of control [22]: 94%
- kinase still bound, per cent of control [23]: 100%
- kinase still bound, per cent of control [24]: 69%
- kinase still bound, per cent of control [25]: 47%
- kinase still bound, per cent of control [26]: 28%
- kinase still bound, per cent of control [27]: 30%
- kinase still bound, per cent of control [28]: 100%
- kinase still bound, per cent of control [29]: 55%
- kinase still bound, per cent of control [30]: 70%
- kinase still bound, per cent of control [31]: 100%
- kinase still bound, per cent of control [32]: 97%
- kinase still bound, per cent of control [33]: 79%
- kinase still bound, per cent of control [34]: 100%
- kinase still bound, per cent of control [35]: 55%
- kinase still bound, per cent of control [36]: 100%
- kinase still bound, per cent of control [37]: 11%
- kinase still bound, per cent of control [38]: 32%
- kinase still bound, per cent of control [39]: 12%
